Assay results: a melting point compilation (Tetko et al.; mined from patent text by program, amines drawn as free bases though some values may be those of a salt)

Row | Structure (SMILES) | melting point
1 | CCc1cc(O)cc2c3c([nH]c12)C(CC)(CC(=O)OC)OCC3 (configuration not stated) | 153 to 154 °C
2 | Cc1cc(C)c2c(c1)cc(C(=O)O)n2CC(=O)OC(C)(C)C | 210 °C
3 | CCNc1nc(C)cc(O)n1 | 176 °C
4 | CCCCCCCOC(=O)Oc1ccncc1 | 44 to 50 °C
5 | CCn1cc(C(=O)O)c(=O)c2cc(F)c(N3CCSC3)cc21 | 270 to 273 °C
6 | Nc1c([N+](=O)[O-])sc2cc(Cl)ccc12 | 243 to 245 °C
7 | N=C(NC1CC1)N[N+](=O)[O-] | 127 to 130 °C
8 | NC(=NOC1CCCCO1)Nc1c(Cl)cccc1Cl (configuration not stated) | 178 to 180 °C
9 | CCC=C(CCC)C(=O)O | 38 °C
10 | CC1(C)Oc2ccc(C(=O)CO)cc2[C@H](NC(=O)c2cc(F)cc(F)c2)[C@H]1O | 179 °C
11 | O=[N+]([O-])c1ccc(-c2cccs2)cc1 | 124 to 126 °C
12 | O=C(O)c1ccc(S(=O)(=O)Cl)cc1O | 173 °C
13 | CCC(CC)Nc1ccc2c(c1)N1CCCN=C1S2 | 114 °C
14 | CCOC(=O)c1cnc2ccc(CC)cc2c1O | > 260 °C
15 | CN(C)C(=O)c1ccc(NC(=O)C(C)(C)C)cc1C(F)(F)F | 199 to 200 °C
16 | O=C(CCCC1CCCCC1)C1=C(O)COC1=O | 38 to 42 °C
17 | CCc1c(N)nc(-c2ccc(Cl)c(OC)c2F)nc1C(=O)OC | 144 to 146 °C
18 | CCOC(=O)c1nc2c(=O)[nH]c3ccc(-n4ccnc4)cc3n2c1C | > 250 °C
19 | O=[N+]([O-])c1cc(Cn2cncn2)ccc1Cl | 98.9 °C
20 | CC(C)(C)c1cc(-c2ccc(NC(=O)COCC(=O)O)cc2)cc(C(C)(C)C)c1O | 183 to 184 °C
21 | Nc1nc(N2CCOCC2)c2ncn(C3CC(F)C(CO)O3)c2n1 (configuration not stated) | 165 to 167 °C
22 | Fc1cc(F)c(CN2CCNc3ncc(I)cc32)cc1F | 154 to 156 °C

Row | Structure (SMILES) | melting point
23 | CC(C)(C)c1cc(C(C#N)N2CCCCC2)cc(C(C)(C)C)c1O (configuration not stated) | 110 to 111 °C
24 | N#Cc1nn(-c2c(Cl)cc(C(F)(F)F)cc2Cl)c(N)c1OC(F)F | 152 to 154 °C
25 | N=C(N)COc1cccc(Cl)c1Cl | 104 to 108 °C
26 | COc1cc(Cl)c([N+](=O)[O-])cc1C(=O)NCCC(=O)O | 170 to 172 °C
27 | CCNC(=O)c1ccccc1C(F)(F)F | 73 to 76 °C
28 | c1cc(-c2noc(C3CC3)n2)cnn1 | 115 to 117 °C
29 | CCCCCCCCCCCCCN(O)C(=O)N(C)C | 57 to 58 °C
30 | Cn1nncc1-c1cc(C=O)c2occc2c1 | 180 to 182 °C
31 | Nc1nc(N)c2[nH]c(C3OC(CO)C(O)C3O)nc2n1 (configuration not stated) | 234 to 237 °C
32 | CCCc1ccnc(C(N)=O)c1C(N)=O | 178 to 179 °C
33 | COc1cc2c(cc1O)CCN(C(=O)c1cc(OC)c(OC)c(OC)c1)C2 | 172 to 173 °C
34 | N#Cc1c(-c2ccc(Cl)cc2)[nH]c([N+](=O)[O-])c1Br | 180 to 185 °C
35 | CCOC(=O)c1cn(CC)c2cc(-c3csc(CN(CCOC(C)=O)C(C)=O)n3)c(F)cc2c1=O | 148 to 152 °C
36 | N#Cc1ccc(COc2ccc(-c3ccc(C4Cc5ccccc5C(c5c(O)c6ccccc6oc5=O)C4)cc3)cc2)cc1 (configuration not stated) | 127 °C
37 | Cc1ccc(-c2c(CNC(=O)OC(C)(C)C)c(CC(C)(C)C)nc(C)c2C(=O)O)cc1 | 216 to 217 °C
38 | Cc1c(-c2nnn[nH]2)oc2c(c1=O)CS(=O)(=O)c1ccccc1-2 | 268 to 270 °C
39 | OC1CSC(Sc2cc(C(F)(F)F)cc(C(F)(F)F)c2)C(O)C1O (configuration not stated) | 157 to 158 °C
40 | CC(C)(C)COC(=O)c1cc(Cl)c(F)c(Cl)c1F | 38 to 42 °C
41 | C#CCN1CSCC1=O | 29 to 31 °C
42 | CCOC(=O)NC(=N)NC#N | 193 to 194 °C
43 | CC(=O)ONc1nc(CC(=O)Nc2cccc(C(F)(F)F)c2)cs1 | 137 to 140 °C

Continued, values first:

Row | melting point | Structure (SMILES)
44 | 140 °C | CCOC(=O)N1CCC(N(Cc2ccccc2)C(=S)Nc2ccccc2[N+](=O)[O-])CC1
45 | 180 to 183 °C | CC1(C)CC(=O)c2c(Nc3ccccn3)cn(-c3ccccn3)c2C1
46 | 106 to 107 °C | CN(c1ccc(I)cc1)S(C)(=O)=O
47 | 110 to 112 °C | CCOc1cccc(N2CCN(CCCCOc3ccc4c(n3)NC(=O)CC4)CC2)c1Cl
48 | 158 to 160 °C | COc1cc2c(cc1OC)C(=CN1CCN(C(=O)c3ccco3)CC1)C(=O)N2
49 | 125 °C | COc1ccc(C(=O)Nc2cccnc2Cl)cc1
50 | 146 to 147 °C | CCCn1c(=O)n(-c2ccc3c(c2)OCO3)c2ncc(NC(=O)OCC)cc21
51 | 187 to 189 °C | OCc1ccc(-c2ccc3nnn(Cc4ccc5ncccc5c4)c3n2)cc1
52 | 76 °C | CCOC(=O)c1ccc(-c2cccc(O)c2)cc1
53 | 101 to 103 °C | CSC(SC)(SC)C(O)c1ccc(-n2cccc2)cc1 (configuration not stated)
54 | 143 to 145 °C | CC1(CC(=O)O)OCCc2nc(-c3ccccc3)sc21 (configuration not stated)
55 | 212 to 214 °C | COc1ccc(-c2nc3cc(Cl)c(Cl)cc3n2C(=O)OCc2ccccc2)cc1[N+](=O)[O-]
56 | 89 to 90 °C | Cc1ccc(CCOc2ccnc3c(F)cccc23)cc1
57 | 270 to 275 °C | NS(=O)(=O)c1ccc(NC(=O)NC23CC4CC(CC(C4)C2)C3)cc1
58 | 106 to 107 °C | CS(=O)(=O)Nc1ccccc1OCCCN1CCC(OC(c2ccccc2)c2ccccc2)CC1
59 | 157 to 159 °C | CC(C)(NC(=O)OCc1ccccc1)C(=O)NC(c1ccccc1)c1ccccc1
60 | 208 to 211 °C | CN(C)C(=O)/C=C/c1ccc(C(=O)c2c(-c3ccc(O)cc3)sc3cc(O)ccc23)cc1
61 | 49.9 to 53.4 °C | CCOC(=O)C=Cc1ccc(NCCOC)cc1
62 | 250 to 252 °C | O=C(O)c1ccc(COc2ccc3cc(-c4ccc(-c5ccccc5)n4Cc4ccc(C(F)(F)F)cc4)ccc3c2)c(C(=O)O)c1
63 | 221 to 224 °C | O=C1Cc2ccccc2N1Nc1ccncc1

Row | melting point | Structure (SMILES)
64 | 84 to 86 °C | Cc1c(-c2ccccc2)oc2c(SCCCCl)cccc2c1=O
65 | 93 to 95 °C | COc1cccc(-c2ccc(O)cc2)c1
66 | 171 to 172 °C | COc1cc(CCCCC2OC(=O)NC2=O)ccc1OCc1coc(/C=C/c2ccccc2)n1 (configuration not stated)
67 | 112 °C | CCN(CC)CC1CCCCN1CCCCN1c2ccccc2C(=O)Nc2cccnc21 (configuration not stated)
68 | 92 to 94 °C | COC(CN(C)c1nccc(Oc2ccc(NC(=O)c3cc(F)cc(N4CCOCC4)c3)c3ccccc23)n1)OC
69 | 132 to 134 °C | N#Cc1ccc(-c2ccc(OC(F)(F)F)c(CNC3CCN(C(=O)CO)CC3c3ccccc3)c2)c(F)c1 (configuration not stated)
70 | 100 to 102 °C | COc1ccc(C2=NN(c3ccc(-c4nnn(Cc5ccccc5)n4)cc3)C(=O)[C@H]3CC=CC[C@@H]23)cc1OC (relative stereo)
71 | 142 to 144 °C | OCC1Cn2c(nc3ccccc32)-c2ccccc2O1 (configuration not stated)
72 | 64 to 65 °C | CC#CC(O)(C(=O)OC)c1ccccc1 (configuration not stated)
73 | 160 °C | CC(=O)OCCn1nc(C)c(-c2ccc3c(c2)NC(=O)CO3)c1-c1ccc(F)cc1
74 | 106 to 109 °C | Cc1nc2c([N+](=O)[O-])cc(Br)cc2n1COCc1ccccc1
75 | 74 to 76 °C | CN(CCOc1cccc2ccn(C(=O)OC(C)(C)C)c12)C(=O)OC(C)(C)C
76 | 180 to 181 °C | Cc1ccc2c(c1)C(C(=O)Nc1ccccc1C(C)C)c1ccccc1CO2 (configuration not stated)
77 | 94.8 to 96.9 °C | CCCCOP(=O)(OCCCC)OCN1C(=O)NC(c2ccccc2)(c2ccccc2)C1=O
78 | 95 to 96 °C | CC1(C)C=Cc2cc(S(=O)(=O)c3ccccc3)ccc2O1
79 | 213 to 215 °C | Cc1cc(C(=O)N2Cc3cccn3Cc3ccccc32)ccc1NC(=O)c1ccc(Cl)cc1Cl
80 | 179 to 181 °C | CN(C)c1cc(CC(C#N)=CNc2ccccc2)cc(N(C)C)c1N(C)C
81 | 182 to 183 °C | COCC1(C)CCCSc2cc(C#Cc3ccc(C(=O)O)cc3)ccc21 (configuration not stated)
82 | 207 °C | Cc1cc(-c2nc3cc(F)cc(N4CCCC4)c3c(=O)[nH]2)cc(C)c1OCCN1CCCC1
83 | 143 to 147 °C | O=CC(CC(=O)O)NC(=O)C1CCCN2C(=O)CCC(NC(=O)c3ccccc3)C(=O)N12 (configuration not stated)

Row | melting point | Structure (SMILES)
84 | 124 °C | CC(OCc1cc2nc(C(F)(F)F)ccc2n1S(=O)(=O)c1ccc2ncsc2c1)C(=O)O (configuration not stated)
85 | 234 °C | O=C1NCCc2ccc(OCCCCN3CCN(c4cccc5ccc(F)cc45)CC3)nc2N1
86 | 253 to 256 °C | Cc1ccc(S(=O)(=O)n2ccc3c(-c4c(-c5ccc(F)cc5)nc5ccc(N6CCN[C@H](C)C6)nn45)ccnc32)cc1
87 | 139 to 141 °C | CN1CCN(C(=O)c2cccn2Cc2ccccc2N)CC1
88 | 121 to 125 °C | CCCC(=O)NCCc1ccc(S(=O)(=O)N2CCN(C3CCCCC3)C2=N)s1
89 | 197 to 199 °C | CC(C)c1cc2nc(N)sc2cc1SC1=C(O)C[C@@](CCc2ccccc2)(C(C)C)OC1=O
90 | 173 to 176 °C | COc1cc(N)c(Cl)cc1C(=O)NC1CCN(CC2CCCCC2)CC1C (configuration not stated)
91 | 110 °C | CCc1nnc(C(Cc2ccc(OCCc3nc(-c4ccccc4)oc3C)cc2)c2ccccc2)o1 (configuration not stated)
92 | 125 to 126 °C | CC(NC(=O)OCc1ccccc1)C(=O)NCCc1ccccc1 (configuration not stated)
93 | 115 to 116 °C | Cc1ccc(S(=O)(=O)NCc2ccccc2)cc1
94 | 192 to 193 °C | COC(=O)C1=C(C)NC(C)=C(c2nc(-c3ccc(CN(C)Cc4ccccc4)cc3)no2)C1c1cccc([N+](=O)[O-])c1 (configuration not stated)
95 | > 200 °C | CCn1c(NC=O)nc(N2CCc3ccccc3CC2)c(C#N)c1=O
96 | 110 to 111 °C | COc1ccc(OC)c2c(C#C[Si](C)(C)C)c3ccccc3nc12
97 | < 20 °C | CCOC(=O)C(C)(C)Oc1ccc(-c2ccc(CCNC(=O)c3cc(OC)c(OC)c(OC)c3)cc2)cc1
98 | 121 to 123 °C | O=C1C(=O)N(CCl)c2ccccc21
99 | 57 to 58.5 °C | Cc1ccc(S(=O)(=O)OCC2COC(C(F)(F)F)(C(F)(F)F)O2)cc1 (configuration not stated)
100 | > 120 °C | O=c1[nH]c(N2CCNC(CO)C2)cc2ccccc12 (configuration not stated)
101 | 161 to 164 °C | Cc1c(CCc2ccc3[nH]c(N)nc3c2)ncn1C(c1ccccc1)(c1ccccc1)c1ccccc1
102 | 243 to 244 °C | O=C(CCCN1CCC(NC(=O)c2ccccc2)CC1)c1ccc(Cl)cc1
